Results from patent US12552806B2, “Androgen receptor regulation by small molecule enantiomers” (University of Southern California, priority 2020, dated 2026).
Where two headings read alike, the source gives them in different places.

How the values were obtained:
AR T878A = molecular target: T1, AR T878A (Homo sapiens, UniProt P10275, T878A); test: cell-based; assay type: cell-based
T1 construct: LNCaP cells expressing AR T878A; endogenous in cells; host or cells: LNCaP-luc (LNCaP stably carrying the Cignal Lenti AR Reporter)
T1 sequence (P10275 1-920 T878A): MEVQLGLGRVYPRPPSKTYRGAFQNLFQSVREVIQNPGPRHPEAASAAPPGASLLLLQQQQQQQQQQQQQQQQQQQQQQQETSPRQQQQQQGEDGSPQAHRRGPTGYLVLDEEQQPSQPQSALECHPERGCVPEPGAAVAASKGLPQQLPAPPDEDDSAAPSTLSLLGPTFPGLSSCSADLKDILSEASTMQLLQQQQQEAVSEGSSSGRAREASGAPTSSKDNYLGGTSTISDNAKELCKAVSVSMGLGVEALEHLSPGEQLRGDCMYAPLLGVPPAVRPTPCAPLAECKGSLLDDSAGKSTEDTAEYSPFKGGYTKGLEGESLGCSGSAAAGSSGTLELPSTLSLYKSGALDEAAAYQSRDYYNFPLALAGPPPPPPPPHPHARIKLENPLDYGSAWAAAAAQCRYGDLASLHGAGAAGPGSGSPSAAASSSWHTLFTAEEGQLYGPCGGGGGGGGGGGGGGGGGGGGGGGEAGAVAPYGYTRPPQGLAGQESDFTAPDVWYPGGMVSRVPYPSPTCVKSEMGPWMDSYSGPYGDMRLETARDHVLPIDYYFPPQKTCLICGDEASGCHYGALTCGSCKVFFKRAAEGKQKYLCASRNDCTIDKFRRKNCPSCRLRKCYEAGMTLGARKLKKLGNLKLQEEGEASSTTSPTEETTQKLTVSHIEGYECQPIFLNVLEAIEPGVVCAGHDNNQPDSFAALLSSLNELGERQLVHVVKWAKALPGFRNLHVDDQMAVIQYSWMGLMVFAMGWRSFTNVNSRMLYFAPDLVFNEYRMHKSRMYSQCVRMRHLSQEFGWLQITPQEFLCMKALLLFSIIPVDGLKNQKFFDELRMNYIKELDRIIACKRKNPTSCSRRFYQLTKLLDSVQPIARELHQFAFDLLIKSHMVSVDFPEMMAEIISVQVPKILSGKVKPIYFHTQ
Description: We generated a LNCaP cell line stably expressing luciferase controlled by androgen response elements (ARE-luciferase).
Cell Culture and Treatments. The LNCaP cell line were obtained from ATCC, cultured in RPMI1640 (Corning) supplemented with 10% heat-inactivated GemCell bovine serum (Gemini Bio-Products) and Penicillin-Streptomycin (Gemini Bio-Products). Cell lines stably expressing ARE-luciferase (LNCaP-luc) was generated using Cignal Lenti AR Reporter (Qiagen) and was continuously cultured with 500 ng/mL Puromycin (Gibco) for positive selection. Cells were maintained at 37° C. in a humidified incubator with 5% carbon dioxide. All cell lines were authenticated using NIST approved short tandem repeat (STR) DNA profiling performed by the University of Arizona Genetics Core and routinely tested negative for mycoplasma.
Luciferase assay. LNCaP-luc cells were seeded in clear flat bottom white polystyrene 96-well plates (Corning) at a density of 12,000 cells/well. […] Dose-response curves were fit using the delta method and t-distribution (n=1). Compounds are tested up to 10 μM.

AR = molecular target: T2, AR (Rattus norvegicus, UniProt P15207); test: AR binding, PolarScreen AR Competitor Assay (fluorescence polarization)
T2 construct: purchased Thermo Fisher Scientific
T2 sequence (P15207 646-902 limits assumed): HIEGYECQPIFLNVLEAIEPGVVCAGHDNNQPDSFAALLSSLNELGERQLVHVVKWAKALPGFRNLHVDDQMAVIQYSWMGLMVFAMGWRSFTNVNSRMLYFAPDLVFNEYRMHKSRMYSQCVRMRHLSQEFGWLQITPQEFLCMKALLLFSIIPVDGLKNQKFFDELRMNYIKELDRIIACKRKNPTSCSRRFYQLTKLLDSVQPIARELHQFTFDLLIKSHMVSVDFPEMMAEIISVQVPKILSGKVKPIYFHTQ
Protocol: AR Binding. Ligand binding was analyzed using the PolarScreen AR Competitor Assay Kit, Green, according to the manufacturer's instructions (Thermo Fisher Scientific). Fluorescence polarization was measured after a 4-h incubation using an EnVision 2103 Multilabel Plate Reader (PerkinElmer).

VCaP cells = test: VCaP viability assay (CellTiter-Glo); assay type: cell-based; conditions: Homo sapiens, VCaP
Protocol: PC3 and VCaP cell lines were obtained from ATCC and cultured as recommended. Generation and culture of PC3 GFP-AR cells were described previously (14). ARE-luciferase cells were generated using Cignal Lenti AR Reporter (Qiagen). Cell lines were authenticated using NIST-approved short tandem repeat DNA profiling and tested negative for mycoplasma. Drug treatments were conducted after overnight culture in phenol red-free media supplemented with charcoal:dextran stripped FBS.
Luminometer Assays. For ARE-luciferase, luciferase substrate was added to lysed cells after 24-h treatment. For viability, cells were lysed with CellTiter-Glo 3D Cell Viability Assay (Promega) after 6 d of treatment. Measurements were performed in 96-well plates (Corning) using a GloMax 96 Microplate Luminometer (Promega).

## CCS(=O)(=O)Nc1ccc2c(c1)C(=O)N(c1ccc(C#N)c(C(F)(F)F)c1)C2=O [EITM-1708, N-(2-(4-cyano-3-(trifluoromethyl)phenyl)-1,3-dioxoisoindolin-5-yl)ethanesulfonamide]
AR T878A
  ED50: No binding
  Emax: No binding
AR
  binding to AR in vitro, in words: did not bind to AR

## C[C@]12O[C@](C)(C[C@H]1NC(=O)c1cc(-c3ccco3)[nH]n1)[C@H]1C(=O)N(c3ccc(C#N)c(C(F)(F)F)c3)C(=O)[C@H]12 [EITM-1711, N-((3aR,4R,5R,7R,7 aS)-2-(4-cyano-3-(trifluoromethyl)phenyl)-4,7-dimethyl-1,3-dioxooctahydro-1H-4,7-epoxyisoindol-5-yl)-5-(furan-2-yl)-1H-pyrazole-3-carboxamide]
AR T878A
  EC50: 535 nM
AR T878A; LNCaP
  Emax: 1%
AR
  binding to AR in vitro, in words: appeared to accommodate

## Cc1c(N2C(=O)[C@@H]3[C@H](C2=O)[C@@]2(C)C[C@@H](NC(=O)c4cc(C(C)O)[nH]n4)[C@]3(C)O2)ccc(C#N)c1C(F)(F)F (stereo partly drawn) [EITM-1712, N-((3aR,4R,5R,7R,7 aS)-2-(4-cyano-2-methyl-3-(trifluoromethyl)phenyl)-4,7-dimethyl-1,3-dioxooctahydro-1H-4,7-epoxyisoindol-5-yl)-5-(1-hydroxyethyl)-1H-pyrazole-3-carboxamide]
AR T878A
  AR agonism / antagonism in LNCaP ARE-luciferase, in words: pure antagonists
  EC50: 2130 nM
AR T878A; LNCaP
  Emax: 38%

## CC(=O)c1cc(C(=O)N[C@@H]2C[C@@]3(C)O[C@]2(C)[C@@H]2C(=O)N(c4ccc(C#N)c(C(F)(F)F)c4)C(=O)[C@@H]23)n[nH]1 [EITM-1703, 5-acetyl-N-((3aR,4R,5R,7R,7aS)-2-(4-cyano-3-(trifluoromethyl)phenyl)-4,7-dimethyl-1,3-dioxooctahydro-1H-4,7-epoxyisoindol-5-yl)-1H-pyrazole-3-carboxamide]
AR T878A
  AR agonism / antagonism in LNCaP ARE-luciferase, in words: robust antagonistic activities without notable agonism
  EC50: 1700 nM
AR T878A; LNCaP
  Emax: 20%

## 3-(4-acetylpiperazin-1-yl)-N-((3aR,4R,5R,7R,7aS)-2-(4-cyano-3-(trifluoromethyl)phenyl)-4,7-dimethyl-1,3-dioxooctahydro-1H-4,7-epoxyisoindol-5-yl)propenamide [EITM-1716]
AR T878A
  ED50: No binding (IC50 > 5 μM)
  Emax: No binding
AR
  binding to AR in vitro, in words: did not bind AR
AR; printed inside the ED50 cell of Table 2, read-out: IC50 (No binding)
  IC50: > 5000 nM

## CCS(=O)(=O)N[C@@H]1C[C@@]2(C)O[C@]1(C)[C@@H]1C(=O)N(c3ccc(C#N)c(C(F)(F)F)c3F)C(=O)[C@@H]12 [EITM-1705, N-((3aR,4R,5R,7R,7aS)-2-(4-cyano-2-fluoro-3-(trifluoromethyl)phenyl)-4,7-dimethyl-1,3-dioxooctahydro-1H-4,7-epoxyisoindol-5-yl)ethanesulfonamide]
AR T878A
  AR agonism / antagonism in LNCaP ARE-luciferase, in words: displayed notable AR agonism
  ED50: agonist
  Emax: agonist

## C[C@]12O[C@](C)(C[C@H]1NC(=O)c1n[nH]c3ccccc13)[C@H]1C(=O)N(c3ccc(C#N)c(C(F)(F)F)c3)C(=O)[C@H]12 [EITM-1709, N-((3aR,4R,5R,7R,7 aS)-2-(4-cyano-3-(trifluoromethyl)phenyl)-4,7-dimethyl-1,3-dioxooctahydro-1H-4,7-epoxyisoindol-5-yl)-1H-indazole-3-carboxamide]
AR T878A
  EC50: 328 nM
AR T878A; LNCaP
  Emax: 1%
AR
  binding to AR in vitro, in words: appeared to accommodate

## C[C@]12O[C@](C)(C[C@H]1NC(=O)c1cc(-c3cccs3)[nH]n1)[C@H]1C(=O)N(c3ccc(C#N)c(C(F)(F)F)c3)C(=O)[C@H]12 [EITM-1710, N-((3aR,4R,5R,7R,7aS)-2-(4-cyano-3-(trifluoromethyl)phenyl)-4,7-dimethyl-1,3-dioxooctahydro-1H-4,7-epoxyisoindol-5-yl)-5-(thiophen-2-yl)-1H-pyrazole-3-carboxamide]
AR T878A
  EC50: 2430 nM
AR T878A; LNCaP
  Emax: 8%
AR
  binding to AR in vitro, in words: appeared to accommodate

## CC(=O)N1CCC(C(=O)N[C@@H]2C[C@@]3(C)O[C@]2(C)[C@@H]2C(=O)N(c4ccc(C#N)c(C(F)(F)F)c4)C(=O)[C@@H]23)CC1 [EITM-1717, 1-acetyl-N-((3aR,4R,5R,7R,7aS)-2-(4-cyano-3-(trifluoromethyl)phenyl)-4,7-dimethyl-1,3-dioxooctahydro-1H-4,7-epoxyisoindol-5-yl)piperidine-4-carboxamide]
AR T878A
  ED50: No binding
  Emax: No binding
AR
  binding to AR in vitro, in words: did not bind AR

## CC(O)c1cc(C(=O)N[C@@H]2C[C@@]3(C)O[C@]2(C)[C@@H]2C(=O)N(c4ccc(C#N)c(C(F)(F)F)c4)C(=O)[C@@H]23)n[nH]1 (stereo partly drawn) [EITM-1704, N-((3aR,4R,5R,7R,7aS)-2-(4-cyano-3-(trifluoromethyl)phenyl)-4,7-dimethyl-1,3-dioxooctahydro-1H-4,7-epoxyisoindol-5-yl)-5-(1-hydroxyethyl)-1H-pyrazole-3-carboxamide]
AR T878A
  AR agonism / antagonism in LNCaP ARE-luciferase, in words: robust antagonistic activities without notable agonism
  EC50: 3700 nM
AR T878A; LNCaP
  Emax: 11%

## C[C@]12O[C@](C)(C[C@H]1n1cc(CCO)nn1)[C@H]1C(=O)N(c3ccc(C#N)c(C(F)(F)F)c3)C(=O)[C@H]12 [EITM-1706, 4-((3aR,4R,5R,7R,7 aS)-5-(4-(2-hydroxyethyl)-1H-1,2,3-triazol-1-yl)-4,7-dimethyl-1,3-dioxooctahydro-2H-4,7-epoxyisoindol-2-yl)-2-(trifluoromethyl)benzonitrile]
AR T878A
  ED50: No binding
  Emax: No binding
AR
  binding to AR in vitro, in words: did not bind to AR

## C[C@]12O[C@](C)(C[C@H]1NC(=O)c1c[nH]c3ccccc13)[C@H]1C(=O)N(c3ccc(C#N)c(C(F)(F)F)c3)C(=O)[C@H]12 [(R)-1720]
VCaP cells
  IC50: 160 nM
